The source of these data is publication PMC7461557, “Multicopy Suppressor Analysis of Strains Lacking Cytoplasmic Peptidyl-Prolyl cis/trans Isomerases Identifies Three New PPIase Activities in Escherichia coli That Includes the DksA Transcription Factor” (International Journal of Molecular Sciences, 2020).

The target of assay [1] is T1, MetL (Escherichia coli, UniProt P00562).
T1 construct: ASKA clone in pCA24N, Ni-NTA purified from E. coli lacking six PPIs (SR18292)
The assay can be described thus: chymotrypsin-coupled PPIase assay, absorbance […] nm. Type of assay: biochemical. Conditions: inhibitor; substrate N-Suc-Ala-Ala-cis-Pro-Phe-p-nitroanilide; two-fold molar excess of FK506, 5 min preincubation; 35 mM HEPES pH 8.0, 10 °C.

The target of assay [2] is T2, Cmk (Escherichia coli, UniProt P0A6I0).
T2 construct: ASKA clone in pCA24N, Ni-NTA purified from E. coli lacking six PPIs (SR18292)
T2 sequence (P0A6I0 1-227): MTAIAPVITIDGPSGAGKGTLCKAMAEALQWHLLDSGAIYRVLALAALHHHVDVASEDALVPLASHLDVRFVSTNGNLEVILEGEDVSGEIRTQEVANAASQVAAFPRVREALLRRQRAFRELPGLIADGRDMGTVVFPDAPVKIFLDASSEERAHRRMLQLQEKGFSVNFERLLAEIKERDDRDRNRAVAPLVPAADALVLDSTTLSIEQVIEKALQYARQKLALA
The assay can be described thus: chymotrypsin-coupled PPIase assay, absorbance […] nm. Format: biochemical. Conditions: inhibitor; substrate N-Suc-Ala-Ala-cis-Pro-Phe-p-nitroanilide; two-fold molar excess of FK506, 5 min preincubation; 35 mM HEPES pH 8.0, 10 °C.

T1 sequence (P00562 whole entry): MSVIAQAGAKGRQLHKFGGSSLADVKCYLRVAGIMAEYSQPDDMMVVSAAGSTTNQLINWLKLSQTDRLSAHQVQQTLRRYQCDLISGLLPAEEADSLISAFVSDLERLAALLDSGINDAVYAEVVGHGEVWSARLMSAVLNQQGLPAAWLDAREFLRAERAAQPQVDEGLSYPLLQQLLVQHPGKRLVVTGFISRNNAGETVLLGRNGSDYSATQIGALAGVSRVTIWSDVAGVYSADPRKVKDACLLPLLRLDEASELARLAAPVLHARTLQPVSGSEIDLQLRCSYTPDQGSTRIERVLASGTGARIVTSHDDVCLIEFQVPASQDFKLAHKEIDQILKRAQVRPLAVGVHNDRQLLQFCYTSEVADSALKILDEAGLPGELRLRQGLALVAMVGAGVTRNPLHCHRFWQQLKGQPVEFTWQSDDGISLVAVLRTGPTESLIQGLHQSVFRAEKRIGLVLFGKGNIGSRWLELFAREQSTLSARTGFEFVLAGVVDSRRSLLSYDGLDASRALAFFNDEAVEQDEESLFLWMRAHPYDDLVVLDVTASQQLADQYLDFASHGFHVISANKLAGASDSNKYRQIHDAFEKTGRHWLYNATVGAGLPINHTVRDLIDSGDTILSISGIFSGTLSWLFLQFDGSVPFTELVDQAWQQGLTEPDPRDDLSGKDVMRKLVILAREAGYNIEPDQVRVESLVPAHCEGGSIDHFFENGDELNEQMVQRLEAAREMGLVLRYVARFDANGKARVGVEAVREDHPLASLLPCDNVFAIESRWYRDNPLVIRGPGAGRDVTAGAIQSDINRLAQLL

Regarding `C=CC[C@@H]1/C=C(\C)C[C@H](C)C[C@H](OC)[C@H]2O[C@@](O)(C(=O)C(=O)N3CCCC[C@H]3C(=O)O[C@H](/C(C)=C/[C@@H]3CC[C@@H](O)[C@H](OC)C3)[C@H](C)[C@@H](O)CC1=O)[C@H](C)C[C@@H]2OC` [FK506], the “chymotrypsin-coupled PPIase assay, absorbance 390 nm” value in assay [1] is “inhibition of the PPIase activity of MetL by the two-fold molar excess of FK506”; in assay [2] it was “inhibition of the PPIase activity of Cmk by the two-fold molar excess of FK506”.
